{
  "source": "patent US10369119B2",
  "about": "(priority 2015, dated 2019)",
  "key": {"[1]": {"target": "T1, caspase-3 (Mus musculus, UniProt P70677)", "T1 construct": "Caspases were induced in RAW264.7 by treating cells with 2 μg/ml of PE for 4 hours; endogenous in cells; host or cells: RAW264.7 (lysate after PE treatment)", "T1 sequence (P70677 29-175 limits assumed)": "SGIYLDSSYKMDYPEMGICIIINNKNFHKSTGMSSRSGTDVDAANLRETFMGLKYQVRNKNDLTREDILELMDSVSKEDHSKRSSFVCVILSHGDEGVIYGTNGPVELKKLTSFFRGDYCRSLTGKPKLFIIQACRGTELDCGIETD", "T1 sequence (P70677 176-277 limits assumed)": "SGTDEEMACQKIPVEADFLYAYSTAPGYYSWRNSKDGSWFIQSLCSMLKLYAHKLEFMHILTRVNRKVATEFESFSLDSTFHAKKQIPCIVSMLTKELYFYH", "assay": "biochemical", "format": "biochemical"}, "[2]": {"target": "T2, caspase-6 (Mus musculus, UniProt O08738)", "T2 construct": "Caspases were induced in RAW264.7 by treating cells with 2 μg/ml of PE for 4 hours; endogenous in cells; host or cells: RAW264.7 (lysate after PE treatment)", "T2 sequence (O08738 6-162 limits assumed)": "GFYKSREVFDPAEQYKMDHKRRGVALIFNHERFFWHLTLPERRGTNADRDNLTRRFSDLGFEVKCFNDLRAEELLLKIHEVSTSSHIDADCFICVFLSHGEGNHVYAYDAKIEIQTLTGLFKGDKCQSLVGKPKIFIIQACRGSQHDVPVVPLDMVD", "T2 sequence (O08738 176-276 limits assumed)": "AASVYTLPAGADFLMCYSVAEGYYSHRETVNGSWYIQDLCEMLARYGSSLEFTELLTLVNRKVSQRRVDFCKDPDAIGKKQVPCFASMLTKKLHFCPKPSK", "assay": "biochemical", "format": "biochemical"}, "[3]": {"tested_on": "caspase-3/7", "format": "biochemical, mouse"}, "[4]": {"tested_on": "PE-sensitive HapMap cells (human B-lymphocytes)", "format": "cell-based"}, "[5]": {"target": "T3, caspase-1 (Homo sapiens, UniProt P29466)", "T3 construct": "purchased BioVision", "T3 sequence (P29466 120-297 limits assumed)": "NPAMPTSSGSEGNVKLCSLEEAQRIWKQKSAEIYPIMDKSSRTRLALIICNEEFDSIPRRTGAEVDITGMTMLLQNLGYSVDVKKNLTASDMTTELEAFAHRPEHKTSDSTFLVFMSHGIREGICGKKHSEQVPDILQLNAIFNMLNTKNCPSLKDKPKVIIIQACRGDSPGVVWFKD", "T3 sequence (P29466 317-404 limits assumed)": "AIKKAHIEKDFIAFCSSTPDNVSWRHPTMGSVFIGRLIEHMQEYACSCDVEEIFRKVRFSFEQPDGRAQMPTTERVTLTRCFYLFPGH", "format": "biochemical"}, "[6]": {"target": "T4, caspase-9 (Homo sapiens, UniProt P55211)", "T4 construct": "purchased BioVision", "T4 sequence (P55211 1-315 limits assumed)": "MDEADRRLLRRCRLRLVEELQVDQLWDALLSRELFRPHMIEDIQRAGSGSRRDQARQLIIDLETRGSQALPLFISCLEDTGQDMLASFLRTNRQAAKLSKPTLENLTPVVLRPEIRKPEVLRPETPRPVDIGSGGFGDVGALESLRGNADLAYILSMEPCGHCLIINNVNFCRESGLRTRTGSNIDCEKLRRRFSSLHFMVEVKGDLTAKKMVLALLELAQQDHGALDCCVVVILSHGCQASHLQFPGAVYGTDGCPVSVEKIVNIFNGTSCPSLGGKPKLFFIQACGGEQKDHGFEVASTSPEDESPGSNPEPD", "T4 sequence (P55211 331-416 limits assumed)": "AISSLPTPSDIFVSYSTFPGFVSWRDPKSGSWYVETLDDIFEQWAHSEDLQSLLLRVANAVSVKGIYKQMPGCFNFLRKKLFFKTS", "format": "biochemical"}, "[7]": {"target": "T5, caspase-3 (Homo sapiens, UniProt P42574)", "T5 construct": "purchased BioVision", "T5 sequence (P42574 29-175 limits assumed)": "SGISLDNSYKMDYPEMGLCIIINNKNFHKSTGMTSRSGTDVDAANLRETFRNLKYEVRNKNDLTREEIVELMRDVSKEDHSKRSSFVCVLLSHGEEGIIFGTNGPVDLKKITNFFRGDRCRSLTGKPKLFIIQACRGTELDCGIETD", "T5 sequence (P42574 176-277 limits assumed)": "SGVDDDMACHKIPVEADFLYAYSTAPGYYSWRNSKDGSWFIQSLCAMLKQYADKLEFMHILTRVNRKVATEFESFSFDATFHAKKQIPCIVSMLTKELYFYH", "format": "biochemical"}, "[8]": {"target": "T6, caspase-6 (Homo sapiens, UniProt P55212)", "T6 construct": "purchased BioVision", "T6 sequence (P55212 24-179 limits assumed)": "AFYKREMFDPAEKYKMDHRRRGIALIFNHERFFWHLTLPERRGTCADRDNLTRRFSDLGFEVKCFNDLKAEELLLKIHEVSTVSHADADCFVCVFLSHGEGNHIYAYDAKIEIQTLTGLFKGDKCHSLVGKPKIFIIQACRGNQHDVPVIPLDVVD", "T6 sequence (P55212 194-293 limits assumed)": "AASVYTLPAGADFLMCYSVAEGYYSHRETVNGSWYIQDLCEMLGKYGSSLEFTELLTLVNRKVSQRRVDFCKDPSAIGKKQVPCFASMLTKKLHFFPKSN", "format": "biochemical"}, "[9]": {"target": "T7, caspase-7 (Homo sapiens, UniProt P55210)", "T7 construct": "purchased BioVision", "T7 sequence (P55210 24-198 limits assumed)": "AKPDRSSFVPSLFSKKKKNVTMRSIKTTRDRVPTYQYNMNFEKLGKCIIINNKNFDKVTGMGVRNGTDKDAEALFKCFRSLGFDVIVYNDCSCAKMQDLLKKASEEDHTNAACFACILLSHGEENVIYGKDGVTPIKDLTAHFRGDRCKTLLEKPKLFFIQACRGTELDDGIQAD", "T7 sequence (P55210 207-303 limits assumed)": "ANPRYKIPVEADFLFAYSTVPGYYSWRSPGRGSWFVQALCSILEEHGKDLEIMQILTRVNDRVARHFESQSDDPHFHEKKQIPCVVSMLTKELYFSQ", "format": "biochemical"}, "[10]": {"tested_on": "other caspases", "format": "biochemical, human"}, "[11]": {"tested_on": "LF-PA-mediated cell killing in RAW264.7 cells", "format": "cell-based, mouse"}, "[12]": {"target": "T8, caspase-1 (Mus musculus, UniProt P29452)", "T8 construct": "Cathepsin B and caspase-1 activities in total cell lysates were determined; endogenous in cells; host or cells: RAW264.7", "T8 sequence (P29452 119-296 limits assumed)": "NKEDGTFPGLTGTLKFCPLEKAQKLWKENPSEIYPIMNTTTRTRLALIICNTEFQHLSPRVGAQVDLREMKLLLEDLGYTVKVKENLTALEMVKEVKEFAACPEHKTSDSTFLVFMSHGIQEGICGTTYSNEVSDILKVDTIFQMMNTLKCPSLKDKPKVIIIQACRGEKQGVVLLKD", "T8 sequence (P29452 315-402 limits assumed)": "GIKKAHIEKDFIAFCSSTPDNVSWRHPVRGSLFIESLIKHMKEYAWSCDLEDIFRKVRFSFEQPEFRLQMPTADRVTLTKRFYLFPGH", "format": "cell-based"}, "[13]": {"target": "anthrax LF toxin (Bacillus anthracis, UniProt P15917)", "sequence (P15917 34-809 limits assumed)": "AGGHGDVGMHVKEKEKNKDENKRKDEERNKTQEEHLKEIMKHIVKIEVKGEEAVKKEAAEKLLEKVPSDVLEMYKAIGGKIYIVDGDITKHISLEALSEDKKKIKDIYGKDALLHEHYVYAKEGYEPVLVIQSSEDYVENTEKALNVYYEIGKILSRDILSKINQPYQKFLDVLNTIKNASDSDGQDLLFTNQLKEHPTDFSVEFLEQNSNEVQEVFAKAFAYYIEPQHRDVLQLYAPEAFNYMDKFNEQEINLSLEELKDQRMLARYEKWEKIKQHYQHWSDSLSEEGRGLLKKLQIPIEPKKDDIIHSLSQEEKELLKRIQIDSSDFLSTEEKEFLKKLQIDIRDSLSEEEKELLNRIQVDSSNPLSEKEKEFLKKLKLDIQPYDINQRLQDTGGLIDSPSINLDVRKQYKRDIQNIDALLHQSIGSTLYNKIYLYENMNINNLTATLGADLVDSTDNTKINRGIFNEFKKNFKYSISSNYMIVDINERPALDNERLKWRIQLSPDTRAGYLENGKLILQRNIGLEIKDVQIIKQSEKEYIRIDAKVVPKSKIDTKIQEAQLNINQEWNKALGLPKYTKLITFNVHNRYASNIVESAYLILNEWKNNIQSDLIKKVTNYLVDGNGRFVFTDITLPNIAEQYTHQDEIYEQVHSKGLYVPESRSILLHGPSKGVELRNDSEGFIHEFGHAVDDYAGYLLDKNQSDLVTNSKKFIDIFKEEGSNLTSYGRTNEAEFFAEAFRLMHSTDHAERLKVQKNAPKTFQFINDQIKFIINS", "format": "cell-based"}, "[14]": {"target": "T9, furin (Mus musculus, UniProt P23188)", "T9 construct": "endogenous in cells; host or cells: RAW264.7", "T9 sequence (P23188 108-793)": "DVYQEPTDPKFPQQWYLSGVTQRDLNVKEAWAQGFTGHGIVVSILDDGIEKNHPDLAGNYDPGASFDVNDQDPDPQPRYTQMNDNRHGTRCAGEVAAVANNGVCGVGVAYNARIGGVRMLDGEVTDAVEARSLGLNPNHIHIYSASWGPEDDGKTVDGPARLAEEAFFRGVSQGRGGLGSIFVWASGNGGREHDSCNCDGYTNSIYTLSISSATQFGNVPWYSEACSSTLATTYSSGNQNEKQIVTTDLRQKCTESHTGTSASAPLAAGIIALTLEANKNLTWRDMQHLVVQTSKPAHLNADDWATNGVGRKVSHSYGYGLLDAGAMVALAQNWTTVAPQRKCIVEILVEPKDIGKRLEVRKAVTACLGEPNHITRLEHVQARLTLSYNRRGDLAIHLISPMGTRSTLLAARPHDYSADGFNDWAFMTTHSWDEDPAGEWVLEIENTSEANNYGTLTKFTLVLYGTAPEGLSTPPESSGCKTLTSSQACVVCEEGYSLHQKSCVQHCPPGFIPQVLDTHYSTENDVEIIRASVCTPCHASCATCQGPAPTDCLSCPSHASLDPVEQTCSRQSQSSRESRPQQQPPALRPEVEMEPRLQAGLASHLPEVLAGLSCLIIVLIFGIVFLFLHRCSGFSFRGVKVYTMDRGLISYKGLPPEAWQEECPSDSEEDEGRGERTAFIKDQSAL", "format": "cell-based"}, "[15]": {"target": "T10, cathepsin-B (Mus musculus, UniProt P10605)", "T10 construct": "Cathepsin B and caspase-1 activities in total cell lysates were determined; endogenous in cells; host or cells: RAW264.7", "T10 sequence (P10605 80-333)": "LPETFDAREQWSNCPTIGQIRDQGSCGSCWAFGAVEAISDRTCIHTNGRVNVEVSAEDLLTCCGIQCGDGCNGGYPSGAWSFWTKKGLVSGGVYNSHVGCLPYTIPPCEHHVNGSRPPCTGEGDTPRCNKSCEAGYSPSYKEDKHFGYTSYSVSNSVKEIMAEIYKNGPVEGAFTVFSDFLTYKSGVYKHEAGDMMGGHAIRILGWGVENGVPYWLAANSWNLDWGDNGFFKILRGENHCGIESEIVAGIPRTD", "format": "cell-based"}, "[16]": {"tested_on": "botulinum neurotoxin serotype A complex (BoNT/A)", "design": "species or system Swiss Webster (CFW) mice", "conditions": "mouse, in vivo"}, "[17]": {"target": "BoNT/A light chain (Clostridium botulinum, UniProt P0DPI0)", "sequence (P0DPI0 2-448 limits assumed)": "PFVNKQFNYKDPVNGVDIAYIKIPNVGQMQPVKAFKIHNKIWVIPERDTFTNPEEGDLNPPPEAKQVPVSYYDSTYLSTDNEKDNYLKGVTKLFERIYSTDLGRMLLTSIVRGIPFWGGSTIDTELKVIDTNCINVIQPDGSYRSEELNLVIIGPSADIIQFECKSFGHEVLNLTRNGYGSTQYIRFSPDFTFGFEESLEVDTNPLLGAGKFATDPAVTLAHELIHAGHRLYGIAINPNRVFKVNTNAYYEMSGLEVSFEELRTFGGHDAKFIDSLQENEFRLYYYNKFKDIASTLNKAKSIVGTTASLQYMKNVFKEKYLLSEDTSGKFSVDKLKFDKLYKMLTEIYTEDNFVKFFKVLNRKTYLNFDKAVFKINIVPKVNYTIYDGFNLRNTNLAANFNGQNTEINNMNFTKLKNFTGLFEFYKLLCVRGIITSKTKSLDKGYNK", "format": "biochemical"}, "[18]": {"tested_on": "Puerto Rico ZIKV", "assay": "Zika virus high content imaging infection assay, Puerto Rico strain PRVABC59 in Vero E6 cells", "format": "cell-based", "conditions": "Vero C1008, 2 hours pretreatment, MOI 0.5, 48 hours, read-out: EC50 for inhibition of abundance of Puerto Rico ZIKV in Vero E6 cells"}, "[19]": {"tested_on": "Senegal ZIKV", "assay": "Zika virus high content imaging infection assay, Senegal strain DAK AR D 41525 in Vero E6 cells", "format": "cell-based", "conditions": "Vero C1008, 2 hours pretreatment, MOI 0.5, 48 hours, read-out: EC50 for inhibition of abundance of Senegal ZIKV in Vero E6 cells"}, "[20]": {"tested_on": "Senegal ZIKV", "assay": "Zika virus high content imaging infection assay, Senegal strain DAK AR D 41525 in human astrocytes", "format": "cell-based", "conditions": "Astrocyte, 2 hours pretreatment, MOI 15, 48 hours, read-out: EC50 for inhibition of abundance of Senegal ZIKV in human astrocytes"}, "[21]": {"tested_on": "Diphtheria toxin-mediated cytotoxicity in C32 cells", "assay": "cells", "conditions": "Homo sapiens, C32, read-out: EC50 for reduction of diphtheria toxin-mediated cytotoxicity"}, "[22]": {"tested_on": "cholera toxin-mediated cytotoxicity in RAW264.7 cells", "assay": "cells", "conditions": "Mus musculus, RAW264.7, read-out: EC50 for reduction of cholera toxin-mediated cytotoxicity"}, "[23]": {"tested_on": "Pseudomonas aeruginosa exotoxin A (PE)-mediated cytotoxicity in RAW264.7 cells", "assay": "cells", "conditions": "Mus musculus, RAW264.7, read-out: EC50 for reduction of Pseudomonas toxin-mediated cytotoxicity"}, "[24]": {"tested_on": "Diphtheria toxin-mediated cytotoxicity in C32 cells"}, "[25]": {"tested_on": "cholera toxin-mediated cytotoxicity in RAW264.7 cells"}, "[26]": {"tested_on": "Pseudomonas aeruginosa exotoxin A (PE)-mediated cytotoxicity in RAW264.7 cells"}},
  "note": "pEC50, pIC50: −log10 of the molar value. Entries after “also recorded” stand apart in the source; their conditions may differ.",
  "data": [
    {"smiles": "Oc1c(Cl)cc(Cl)cc1Sc1cc(Cl)cc(Cl)c1O", "note": "[Bithionol]", "values": [
      {"measurement": "pIC50", "setting": "[1]", "result": 4.68},
      {"measurement": "CCL FRET screen hit: reduction of proteolysis of caspase-3 substrate", "setting": "[1]; 33 μM", "result": "capable of prominently reducing the proteolysis of all three caspase substrates"},
      {"measurement": "pIC50", "setting": "[2]", "result": 4.89},
      {"measurement": "CCL FRET screen hit: reduction of proteolysis of caspase-6 substrate", "setting": "[2]; 33 μM", "result": "capable of prominently reducing the proteolysis of all three caspase substrates"},
      {"measurement": "CCL FRET screen hit: reduction of proteolysis of caspase-3/7 substrate", "setting": "[3]; 33 μM", "result": "capable of prominently reducing the proteolysis of all three caspase substrates"},
      {"measurement": "pIC50", "setting": "[3]; read-out: IC50 for inhibition of proteolytic cleavage of caspase-3/7 substrate", "result": 4.96},
      {"measurement": "Reduction of cellular sensitivity to PE in PE-sensitive HapMap cells", "setting": "[4]", "result": "protected three cell lines"},
      {"measurement": "Inhibition of purified recombinant human caspase-1 activity", "setting": "[5]", "result": "inhibited activities"},
      {"measurement": "Inhibition of purified recombinant human caspase-9 activity", "setting": "[6]", "result": "inhibited activities"},
      {"measurement": "Inhibition of purified recombinant human caspase-3 activity", "setting": "[7]", "result": "inhibited activities"},
      {"measurement": "Inhibition of purified recombinant human caspase-6 activity", "setting": "[8]", "result": "inhibited activities"},
      {"measurement": "Inhibition of purified recombinant human caspase-7 activity", "setting": "[9]", "result": "inhibited activities"},
      {"measurement": "Inhibition of other purified recombinant human caspases", "setting": "[10]", "result": "no inhibitory effects"},
      {"measurement": "Protection against LF-PA-mediated cell killing", "setting": "[11]", "result": "substantial protection"},
      {"measurement": "Caspase-1 induction upon LF-PA treatment", "setting": "[12]", "result": "caspase-1 induction was not detected"},
      {"measurement": "Inhibition of proteolytic activity of cellular LF (MAPKK2 proteolysis)", "setting": "[13]", "result": "does not block proteolysis; also recorded: does not inhibit"},
      {"measurement": "Inhibition of proteolytic activity of cellular furin", "setting": "[14]", "result": "does not inhibit"},
      {"measurement": "Inhibition of proteolytic activity of cellular cathepsin-B", "setting": "[15]", "result": "does not inhibit"},
      {"measurement": "Survival of mice challenged with lethal oral dose of BoNT/A complex", "setting": "[16]", "result": "all of the mice"},
      {"measurement": "Toxin-associated symptoms (wasp waist, paralysis) in BoNT/A challenged mice", "setting": "[16]", "result": "without displaying toxin-associated symptoms"},
      {"measurement": "Effect on proteolysis rate of fluorescent SNAP-25 substrate by BoNT/A", "setting": "[17]", "result": "did not affect the proteolysis rate"},
      {"measurement": "pEC50", "setting": "[18]", "result": 5.17},
      {"measurement": "pEC50", "setting": "[19]", "result": 5.26},
      {"measurement": "pEC50", "setting": "[20]", "result": 5.20},
      {"measurement": "pEC50", "setting": "[21]", "result": 5.00},
      {"measurement": "pEC50", "setting": "[22]", "result": 5.00},
      {"measurement": "pEC50", "setting": "[23]", "result": 5.00}
    ]},
    {"smiles": "Oc1cccc(O)c1O", "note": "[Pyrogallol]", "values": [
      {"measurement": "CCL cellular screen hit: reduction of diphtheria toxin cytotoxicity", "setting": "[24]", "result": "capable of reducing the cytotoxicities of all three toxins"},
      {"measurement": "CCL cellular screen hit: reduction of cholera toxin cytotoxicity", "setting": "[25]", "result": "capable of reducing the cytotoxicities of all three toxins"},
      {"measurement": "CCL cellular screen hit: reduction of PE cytotoxicity", "setting": "[26]", "result": "capable of reducing the cytotoxicities of all three toxins"}
    ]}
  ]
}
